Values of other authors, collected in patent publication US6825382B2, “Trifluoromethylepinephrine compounds and methods of making and using thereof” (The United States of America as represented by the …, priority 2002, dated 2004).
Where two headings read alike, the source gives them in different places.

Tests used:
[1] = 1a versus 1b

| SMILES | epinephrine remaining, of the initial concentration (dental preparations stored under clinical conditions) | epinephrine remaining, of the initial concentration (dental preparations stored under optimal conditions) [%] | biological activity of (R)-enantiomer relative to (S)-enantiomer [1] |
| --- | --- | --- | --- |
| CNC[C@H](O)c1ccc(O)c(O)c1 [epinephrine] | less than 70% | 85 to 90 | – |
| CNC[C@H](O)c1ccc(O)c(O)c1 [1a, (−)-epinephrine] | – | – | 15-20 times |
